The values below come from patent EP4566598A1, “COMPOSITIONS PROVIDING SGLT2I AND BHB ACTIVITY AND METHODS OF USE TO TREAT HUMAN DISEASE” (priority 2023, dated 2025).

The term Cmax denotes the peak of the concentration-time curve.

For series [1] the following is noted: cited from earlier work.
Series [2] deals with vSMCs. Particulars: via ROS-Nrf2 pathway; cited from earlier work.
For series [3] the following is noted: cited from earlier work. This is another data set of the same source.
Series [4] addresses T1, SGLT2 (Homo sapiens, UniProt P31639).
T1 sequence (P31639 1-672): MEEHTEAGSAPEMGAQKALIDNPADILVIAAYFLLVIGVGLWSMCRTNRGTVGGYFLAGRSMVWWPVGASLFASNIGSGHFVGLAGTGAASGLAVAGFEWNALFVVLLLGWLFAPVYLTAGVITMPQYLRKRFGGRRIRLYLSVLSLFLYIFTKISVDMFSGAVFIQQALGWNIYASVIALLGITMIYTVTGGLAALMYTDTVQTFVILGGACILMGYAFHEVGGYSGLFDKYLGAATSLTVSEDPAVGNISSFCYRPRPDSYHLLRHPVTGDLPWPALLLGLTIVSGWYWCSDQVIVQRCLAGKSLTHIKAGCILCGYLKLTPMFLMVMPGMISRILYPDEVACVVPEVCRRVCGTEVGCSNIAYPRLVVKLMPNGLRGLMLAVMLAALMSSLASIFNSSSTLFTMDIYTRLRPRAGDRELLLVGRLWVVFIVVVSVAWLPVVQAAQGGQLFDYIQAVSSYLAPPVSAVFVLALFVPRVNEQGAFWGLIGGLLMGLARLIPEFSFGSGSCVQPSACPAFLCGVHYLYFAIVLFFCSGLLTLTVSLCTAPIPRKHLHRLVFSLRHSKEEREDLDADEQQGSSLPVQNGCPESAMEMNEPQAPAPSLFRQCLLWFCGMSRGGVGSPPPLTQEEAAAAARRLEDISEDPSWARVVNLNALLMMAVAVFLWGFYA
Particulars: cited from earlier work.

For series [5], the system named is AAA. Particulars: PPE induced AAA; cited from earlier work.
The conditions of series [6]: mice; cited from earlier work.
Series [7] concerns AAA. Particulars: apoE-/- Ang II induction model; cited from earlier work.
For series [8] the following is noted: cited from earlier work. The source holds these as a separate data set.
The test system of series [9] is rat aortic smooth muscle cells. Conditions: in vitro; cited from earlier work.
The conditions of series [10]: cited from earlier work. This is another data set of the same source.
For series [11], the system named is human VSMCs. Particulars: dependent on TRAF3IP2/ROS/NLRP3/caspase-1; cited from earlier work.
Series [12] has as its system abdominal PVAT. Particulars: mice fed with Western diet; cited from earlier work.
The conditions of series [13]: 28-day study, 28 volunteers; cited from earlier work.
For series [14] the following is noted: high-fat diet fed mice; cited from earlier work.
The test system of series [15] is AAA. Conditions: murine models; cited from earlier work.
The conditions of series [16]: in vivo.
For series [17] the following is noted: cited from earlier work. This is another data set of the same source.

“And” between values parts separate entries of the source, which are not always exact repeats. Equal values may be shown once. Read-outs that look alike come from different tables or passages of the source.

On to `Cc1ccc([C@@H]2O[C@H](CO)[C@@H](O)[C@H](O)[C@H]2O)cc1Cc1ccc(-c2ccc(F)cc2)s1` [Canagliflozin], for which the Protein binding in series [1] is given as 99%. Further, the “expression of heme oxygenase-1” value in [2] is “stimulates”. Further, in series [3] (100 mg dose), the “t1/2” value is 10.6 h and the “t1/2 (hours)” value is reported as 10.6 (100 mg dose); hours. Besides, in series [3] (300 mg dose), the Bioavailability is 65% (300 mg dose), the “t1/2” value is 13.1 h and the “t1/2 (hours)” value is 13.1 (300 mg dose) hours. Besides, the “tmax” value in series [3] (in vivo) is 1 to 2 h. In series [4], the “SGLT2 selectivity over SGLT1” value is given as 250 fold.

As to `CCOc1ccc(Cc2cc([C@@H]3O[C@H](CO)[C@@H](O)[C@H](O)[C@H]3O)ccc2Cl)cc1` [Dapagliflozin, (2S,3R,4R,5S,6R)-2-{4-chloro-3-[(4-ethoxyphenyl)methyl]phenyl}-6-(hydroxymethyl)oxane-3,4,5-triol], in series [3] (in vivo), the Bioavailability is 78%, the “t1/2” value was 12.9 h and the “tmax” value is 1 to 1.5 h. Further, in [4], the “SGLT2 selectivity over SGLT1” value is 1200 fold. In series [5], the “aneurysmal induction and expansion” value was “significantly impeded”.

With `OC[C@H]1O[C@@H](c2ccc(Cl)c(Cc3ccc(O[C@H]4CCOC4)cc3)c2)[C@H](O)[C@@H](O)[C@@H]1O` [Empagliflozin], the Bioavailability in series [6] is 90-97% and 90–97%; in series [8] (rats), 31%; in series [10] (dogs) it was 89%. For the same compound, the “effect on AAA” value in series [7] is “impedes AAA”. The figures for the Cmax in [3] (10 mg dose) and in series [3] (25 mg dose) were 259 nM and 687 nM, respectively. Moreover, the “t1/2” value in series [3] (10 mg dose) is 13.2 h; in series [3] (25 mg dose) it was 13.3 h. The “t1/2 (hours)” value was 13.2 (10 mg dose); hours in series [3] (10 mg dose) and 13.3h (25 mg dose) hours in series [3] (25 mg dose). The “tmax” value in series [3] (in vivo) was 1.5 h. The “aortic smooth muscle cell proliferation” value in series [9] is recorded as “significantly decreased”. In series [11], the “secretion of IL-1b and IL-18” value is recorded as “inhibits”.

Take `CCOc1ccc(Cc2cc([C@]34OC[C@](CO)(O3)[C@@H](O)[C@H](O)[C@H]4O)ccc2Cl)cc1` [Ertugliflozin]: the Protein binding in series [1] was 95%. The Cmax in [3] (15 mg dose) is 268 ng/mL (15 mg dose). In addition, in series [3] (in vivo), the Bioavailability is recorded as 70-90%, the “t1/2” value is 11 to 17 h and the “tmax” value was 0.5 to 1.5 h. Moreover, in [4], the “SGLT2 selectivity over SGLT1” value is 2000 fold.

As for `OC[C@H]1O[C@@H](c2ccc(F)c(Cc3cc4ccccc4s3)c2)[C@H](O)[C@@H](O)[C@@H]1O` [Ipragliflozin], the “inflammation, fibrosis, and adipocyte death of abdominal PVAT” value in [12] is listed as “attenuated”. Moreover, the “t1/2 (hours)” value in [3] (50 mg dose) is 15-16 (50 mg dose) hours and 15–16 (50 mg dose) hours. Also, in series [3] (50 mg), the “tmax” value was 1 h. Moreover, the Bioavailability in [3] (in vivo) is reported as 90%. Moreover, the “SGLT2 selectivity over SGLT1” value in series [4] is listed as 360 fold.

For the compound `C[C@@H](O)CCOC(=O)C[C@@H](C)O` [KE-BHB], in series [13], the “effect on body weights or composition, fasting blood glucose, cholesterol, triglyceride, or electrolyte concentrations, blood gases or kidney function” value is reported as “no effect”.

`CCOc1ccc(Cc2cc([C@@H]3S[C@H](CO)[C@@H](O)[C@H](O)[C@H]3O)c(OC)cc2C)cc1` [Luseogliflozin]: in series [8] (female rats), the Bioavailability is reported as 58.2%. Moreover, in [3] (in vivo), the peak concentration (Cmax) is 119 ± 27.0 ng/mL, the “t1/2” value was 9.24 ± 0.928 h and the “tmax” value is 0.625 ± 0.354 h. The Bioavailability in [10] (male dogs) is recorded as 97.2%. Further, the “SGLT2 selectivity over SGLT1” value in series [4] is listed as 1650 fold. Moreover, in series [14], the “intimal hyperplasia after bilateral femoral artery wire injury” value is recorded as “reducing intimal hyperplasia”.

For `Nc1ccccc1NC(=O)c1ccc(CNC(=O)OCc2cccnc2)cc1` [MS-275], the “effect on AAA” value in [15] is recorded as “reduce AAA”.

`C[C@@H](O)CC(=O)O` [R-BHB, R-beta hydroxybutyrate]: the “persistence of BHB elevation” value in series [16] was ~ 2.5 hours.

On to `C[C@H](O)CC(=O)O` [S-BHB], for which, in [17] (human plasma), the “stability in human plasma compared with R/D BHB” value is on record as “far more stable”. The “sustained in plasma, relative to (D/R) BHB” value in series [17] (plasma) is reported as “more than 2 x”. Further, the “persistence of BHB elevation” value in series [16] was 4 to 5 h.

For `CCc1ccc(Cc2ccc3c(c2)[C@]2(OC3)O[C@H](CO)[C@@H](O)[C@H](O)[C@H]2O)cc1` [Tofogliflozin], the Protein binding in series [1] is 83%. Besides, in [3] (10 mg dose), the Cmax is listed as 489 ng/mL and the “t1/2” value is 6.8 h. In series [3] (10 mg), the Bioavailability is recorded as 97.50% and the “tmax” value is 0.75 h. The “SGLT2 selectivity over SGLT1” value in [4] was 2900 fold.
